# Entries after “also recorded” stand apart in the source; their conditions may differ.
# Tests used:
# [1] = system: RAW264.7 cells; experiment: Liposome formulations tested in RAW264.7 cells, TNFα ELISA; format: cell-based, mouse; conditions: formulated in DDA:DSPC liposome, 24 hours
# [2] = system: BALB/c mice; experiment: Splenocyte restimulation with M72 and intracellular cytokine staining of CD4/CD8 T cells after vaccination; format: in vivo, mouse
# Protocol: (§1) Animal studies were carried out in an OLAW and AAALAC accredited vivarium in accordance with University of Montana's IACUC guidelines for the care and use of laboratory animals. Groups of 10–14 BALB/c mice were vaccinated intramuscularly with 0.125 μg M72 antigen and indicated concentrations of various CLR adjuvant candidates (liposomal formulations) in 50 μl total volume per injection. After 14 days, blood and serum samples were collected and a secondary vaccination was administered. At day 19 (5 days post-secondary vaccination), 3–6 mice per group were euthanized and spleens were harvested the assessment of cell-mediated immunity. At day 28 (14 days post booster vaccination) the remaining 7 mice in each group were euthanized and blood was collected for the measurement of M72 specific humoral immunity.
# Spleens were harvested from vaccinated mice 5 days after secondary injections and splenocytes were harvested by disruption of the spleens through a 100 μm filter. Red blood cells were lysed by incubation with red blood cell lysis buffer (Sigma) for 5 min followed by washing in 1x PBS. Cells were plated in a 96 well plate at 5 × 10^6 cells/well in 200 μL complete RPMI1640 media. Cells were incubated with 1 μg/mL M72 antigen for […] at 37°C. After 7 h, GolgiPlug (Brefeldin A, BD Biosciences) was added to each well and incubated at 37°C for a further 12 h. Following incubation, cells were stained with the cell surface antibodies against CD3e PerCP-Cy5.5 (Tonbo Biosciences, 145-2C11), CD4a APC-Cy7 (Tonbo Biosciences, RM4-5) and CD8a PE-Cy7 (Tonbo Biosciences, 53–6.7) and viability stain (Ghost 510, Tonbo Biosciences). Cells were treated with cytofix/cytoperm (BD) and stained with anti-IFNγ PE-CF594 (BD, XMG1.2), anti-IL2 FITC (Biolegend, JES6-5H4), anti-IL-5 PE (BD, TRFK5), anti-IL17A BV421 (Biolegend, TC11-18H10.1), and anti-TNFα APC (Invitrogen, MP6-XT22). Data was collected using an LSRII flow cytometer (BD) and analyzed using FlowJo 10.0 software (TreeStar). Splenocytes were gated on live, single cells, then CD3+ to identify all T cells, then gated as CD4+CD8- to identify CD4 T cells or CD4-CD8+ to identify CD8 T cells. Gates for intracellular cytokine positive CD4 or CD8 T cells are set based on re-stimulation of naïve splenocytes. Gating strategies for the detection of antigen specific CD4+ and CD8+ T cells are outlined in Supplemental Figure 3.
# Figure 7 Induction of IL-17 producing CD4+ and CD8+ T cells from an αTDE adjuvanted M72 vaccine. BALB/c mice, 10 per group, were immunized two times i.m. with 0.125 μg antigen plus 2, 10, or 50 nmol of the indicated adjuvant. Spleens were harvested from a subset of 3 mice per group at 5 days post-secondary vaccination. Splenocytes were restimulated with 1 μg/mL whole antigen and transport inhibitors followed by surface staining for CD3, CD4, and CD8 and then intracellular cytokine staining. Data represent percentage of live, CD3^+/CD4^+, left, or CD3^+/CD8^+, right, cells that are also positive for IL-17A upon stimulation.
# (§2) Figure 8 B16 liposomes biases a Th17/Th2 adaptive immune response. BALB/c mice, 14 per group, were immunized twice, 14 days apart, i.m with 0.1, 1, or 10 μg of M72 antigen plus either blank DDA:DSPC liposome or B16 loaded (10 nmol final dose) liposome. (A,B) M72-specific serum antibody titers at 14 days post-secondary vaccination. (C–F) Spleens were harvested from mice at 5 days post-secondary vaccination and restimulated with 1 μg/mL whole antigen and transport inhibitors followed by surface staining for CD3, CD4, and CD8 and then intracellular cytokine staining. (C) Percent of live, CD3^+/CD4^+/IL5+ cells, (D) Percent of live, CD3^+/CD8^+/IFNγ+ cells, (E) Percent of live, CD3^+/CD4^+/IL17+ cells, and (F) Percent of live, CD3^+/CD8^+/IL17+ cells. ^*p < 0.05, ^**p < 0.01, ^****p < 0.001.
# Supplemental Figure 10. Production of IFNɣ, IL-2, IL-5 or TNFα by CD4 or CD8 T cells in response to various CLR compounds. […]
# [3] = system: BALB/c mice; experiment: Anti-M72 serum antibody ELISA after i.m. vaccination with M72 antigen plus liposomal adjuvant; format: in vivo, mouse
# Protocol: as §1
# Sera was collected from mice 14 days post-primary and 14 days post-secondary injection and diluted according to the expected antibody response (between 1:10 and 1:5000). Plates were coated with 100 μl of the full-length M72 protein at 1 μg/mL. Following washing (PBS plus tween 20) and blocking (SuperBlock, Scytek Laboratories), plates were incubated with diluted serum for 1 h followed by anti-mouse IgG, IgG1, or IgG2a-HRP secondary antibody (Bethyl Laboratories) and TMB substrate (BD). Plates were read at 450 nm. Antibody titers were determined by calculating titer of each sample at OD 0.3.
# Figure 6 Serum antibody levels from mice in response to vaccination with recombinant M72 antigen and various αTDE compounds. BALB/c mice, 10 per group, were vaccinated two times i.m. with 0.125 μg antigen plus 2, 10, or 50 nmol of the indicated adjuvant. Serum was analyzed from 7 mice at 14 days post-secondary vaccination for presence of anti-M72 IgG1 and IgG2a antibodies via ELISA.
# as §2
# [4] = system: Hek Blue human or mouse Mincle-expressing cells; format: cell-based; conditions: top concentrations, 24 h; compared with vehicle only-treated cells
structure (smiles),measurement,setting,value
CCCCCCCC(CCCCCCC)C(=O)OC[C@H]1O[C@H](O[C@H]2O[C@H](COC(=O)C(CCCCCCC)CCCCCCC)[C@@H](O)[C@H](O)[C@H]2O)[C@H](O)[C@@H](O)[C@@H]1O [Compound B16],TNFα secretion from RAW cells in response to liposome formulation,[1],higher levels of TNFα secretion compared to B42
same,Frequencies of IFNγ+ CD8 T cells or IFNγ+ CD4 T cells,"[2]; 10 nmol B16, 0.1, 1 or 10 μg M72, between groups",no differences
same,IL-2+ CD4 T cells,"[2]; 10 nmol B16, 0.1, 1 or 10 μg M72, compared to blank liposome",similarly increased only in the middle dose
same,Frequencies of TNFα+ CD4 T cells,"[2]; 10 nmol B16, compared to antigen matched blank liposome groups",not increased
same,Frequencies of IL-5+ CD4 T cells,"[2]; 10 nmol B16, highest antigen dose tested",no difference is observed
same,"Frequencies of IL-5+, IL-2+, and TNFα+ CD8 T cells","[2]; 10 nmol B16, highest dose of antigen",not at the highest dose
same,"Frequencies of IL-5+, IL-2+, and TNFα+ CD8 T cells","[2]; 10 nmol B16, lower doses of antigen, compared to antigen plus blank liposome",also increased
same,Frequencies of IL-5+ CD4 T cells,"[2]; 10 nmol B16, two lower doses of antigen, compared to antigen plus blank liposome",similarly increased
same,Frequencies of IL-17+ CD4 and CD8 T cells,"[2]; 10 nmol liposomal B16 with 0.1 μg and 1 μg M72/mouse, compared to antigen plus blank liposomes",significantly higher frequencies
same,Frequencies of IL-17+ CD4 and CD8 T cells,"[2]; 10 nmol liposomal B16 with 10 μg M72, compared to antigen plus blank liposome",not significant
same,IL-17+ CD4+ and CD8+ T cells (Th17 response) after M72 re-stimulation,"[2]; 0.125 μg antigen plus 2, 10, or 50 nmol liposomal adjuvant, i.m. two times, spleens 5 days post-secondary",greatest frequency of IL-17+ cells; also recorded: more effective
same,M72 specific serum IgG1 and IgG2a antibody titers,"[3]; 10 nmol B16 liposome, increasing doses of M72 antigen (0.1, 1, 10 μg), 14 dp2",significantly improved
same,M72 specific serum antibody titers,"[3]; 10 nmol B16 liposome, lowest dose of M72 antigen (0.1 μg)",did not exhibit significantly higher antibody titers
same,Anti-M72 serum IgG1 and IgG2a antibody,"[3]; 0.125 μg M72 antigen plus 2, 10, or 50 nmol adjuvant in DDA:DSPC liposomes, i.m. two times, 14 days post-secondary vaccination",neither compound significantly enhanced
same,Cell viability of Mincle HEK cells,[4],less substantial decreases

# From publication PMC6403188, “Species-Specific Structural Requirements of Alpha-Branched Trehalose Diester Mincle Agonists” (Frontiers in Immunology, 2019)
